Legend:
skin of human volunteers [1] = assay: Visual observation of vasodilation (blushing) after topical application of lotion to forearm; assay type: in vivo; details: for Vasodilation at 0.1%: 0.1% in skin lotion; for Vasodilation at 0.1% / Vasodilation at 1.0%: anterior forearm, visual blushing; for Vasodilation at 1.0%: 1.0% in skin lotion
Procedure: This example details the first of two sets of experiments designed to determine the vasodilation effect of alkyl niacin esters. Formulations were prepared by combining the alkyl esters referred to supra in a skin lotion, at 0.1% and 1.0% concentrations. The lotions were applied topically to the skin of human volunteers on the anterior surface of a forearm. Vasodilation was observed visually, i.e., by observing blushing at the site of application, or lack thereof. Both onset and duration of vasodilation were measured.

skin of human volunteers [2] = assay: Skin oxygen / CO2 content by transcutaneous monitor after topical application; assay type: in vivo
Procedure: To examine this issue, the oxygen content of skin to which the octyl ester discussed supra was determined directly, using a transcutaneous oxygen monitor. The 1% formulation of the octyl ester was applied to skin for 30 minutes. After this thirty minute period, the skin was cleaned with soap and water, wiped with an alcohol swab, and a drop of deionized water was placed on the sensor surface before its attachment to the anterior surface of the volunteers' forearms. The transcutaneous values were recorded constantly, and stored by the instrument. The monitor measures relative oxygen content, because the temperature at which the monitor operates does impact the oxygen permeability of the stratum corneum. See, e.g., Martin, Resp. […] The sensor was calibrated at 4 hour intervals, or whenever the sensor temperature was changed.
The monitor was operated at a temperature of 40° C. Values are given for both a control, and the formulation described herein.
In a follow-up experiment, the monitor was operated at 38° C., and both O2 and CO2 were measured, with a combined transcutaneous oxygen and CO2 monitor. […] The control is represented by the dotted line.
Parallel experiments were carried out using 0.1% octyl niacin ester lotion, and a lotion containing octyl niacin ester (0.1%), and 0.1% butyl benzoate.
Oxygen content was measured in the same way as is described, supra, or using other techniques known to the art.

[3] = monitor at 38° C., versus control, FIG. 3

| Structure (SMILES) | Vasodilation at 0.1% (skin of human volunteers [1]) | Vasodilation at 1.0% (skin of human volunteers [1]) | other results |
| --- | --- | --- | --- |
| COC(=O)c1cccnc1 [1 carbon] | Yes | Yes | – |
| CCOC(=O)c1cccnc1 [2 carbons, Ethyl niacin] | Yes | Yes | Vasodilation Effect at 0.1%: Onset (skin of human volunteers [1]; 0.1% lotion, visual determination): 5 to 10 min |
| CCCCOC(=O)c1cccnc1 [4 carbons] | Yes | Yes | – |
| CCCCCCOC(=O)c1cccnc1 [6 carbons, Hexyl niacin] | Yes | Yes | – |
| CCCCCCCCOC(=O)c1cccnc1 [8 carbons, Octyl niacin] | Yes | Yes | Vasodilation Effect at 0.1%: Duration (skin of human volunteers [1]; 0.1% lotion, visual determination, listed as C8): longest effect; Skin oxygen content (transcutaneous oxygen monitor) (skin of human volunteers [2]; 1% formulation applied 30 minutes, monitor at 40° C., versus control, FIG. 2): sustained increase in skin oxygen; Skin CO2 content (combined transcutaneous oxygen and CO2 monitor) (skin of human volunteers [2]; [3]): decrease in CO2 content; Skin oxygen content (combined transcutaneous oxygen and CO2 monitor) (skin of human volunteers [2]; [3]): sustained increase in skin oxygen content |
| CCCCCCCCCOC(=O)c1cccnc1 [9 carbons] | No | Yes | Vasodilation at 1.0% (skin of human volunteers [1]; listed as C9): caused vasodilation |
| CCCCCCCCCCOC(=O)c1cccnc1 [10 carbons] | No | Yes | Vasodilation at 1.0% (skin of human volunteers [1]; listed as C10): caused vasodilation |
| CCCCCCCCCCCOC(=O)c1cccnc1 [11 carbons] | No | Slight | – |
| CCCCCCCCCCCCOC(=O)c1cccnc1 [12 carbons] | No | No | – |
| CCCCCCCCCCCCCOC(=O)c1cccnc1 [13 carbons] | No | No | – |
| CCCCCCCCCCCCCCOC(=O)c1cccnc1 [14 carbons] | No | No | – |
| CCCCCCCCCCCCCCCOC(=O)c1cccnc1 [15 carbons] | No | No | – |
| CCCCCCCCCCCCCCCCOC(=O)c1cccnc1 [16 carbons] | No | No | – |
| CCCCCCCCCCCCCCCCCCOC(=O)c1cccnc1 [18 carbons] | No | No | – |
| CCCCOC(=O)c1ccccc1 [Butyl benzoate, reference compound] | – | – | Effect on the increase in skin oxygen content caused by octyl niacin ester (skin of human volunteers [2]; lotion with 0.1% octyl niacin ester plus 0.1% butyl benzoate versus 0.1% octyl niacin ester lotion alone, FIG. 4): blocked the increase in oxygen content |

From patent US6924299B2, “Methods and compositions useful in enhancing oxygen delivery to cells” (University of Kentucky Research Foundation, priority 2000, dated 2005)
